The record followed here is ChEMBL document CHEMBL1201862, “PubChem BioAssay data set” (2004).

Active and inactive are the calls of the source.

Assay [1] can be described thus: ZM109 Env clade C HIV-1 fusion inhibitors, dose response, HeLa effector, CEM target cells, luciferase, cherry-pick (AID 652058). It counts as functional, cell-based.
Assay [2] concerns the target T1, Ubiquitin-conjugating enzyme E2 N (Homo sapiens, UniProt P61088).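 Further: Dose-response confirmation in a TR-FRET assay detecting UBC13-driven polyubiquitin chain formation, inhibition measured.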
T1 sequence (P61088 whole entry): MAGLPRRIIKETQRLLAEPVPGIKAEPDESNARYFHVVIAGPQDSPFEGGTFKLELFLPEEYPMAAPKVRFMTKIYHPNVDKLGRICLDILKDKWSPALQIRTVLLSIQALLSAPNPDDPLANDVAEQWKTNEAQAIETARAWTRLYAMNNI
Format: functional.

Assay [3] can be described thus: off-target signal loss in HeLa-CEM21 co-culture – HeLa F-luc CTL cells, cherry-picked, counter-screen for HIV-1 Env fusion inhibitor project, dose response (AID 652040).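 Further: potency for signal decrease marking cytotoxic or nonspecific inhibition.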 It counts as functional, cell-based.
Assay [4] in a line: cytotoxicity toward NIH3T3 fibroblasts, dose response, counter-screen, cell-based, ATP luminescence, mouse fibroblasts (AID 2010).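 Further: cells exposed to compound for about 90 hours before reading.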 Format: functional.
Assay [5] can be described thus: inhibitors of clade B AD8 Env fusion, dose response, cell-based, cherry-pick (AID 652062).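 Further: luciferase signal from cell-cell fusion driven by HIV-1 clade B AD8 Env; potency is for inhibitors of fusion seen as a drop in luminescence.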 Format: functional.
Assay [6] in a line: HeLa cell cytotoxicity, dose response, cytotoxicity control for MgcRacGAP inhibitor project (AID 624300). Format: functional.
Assay [7] in a line: Luminescence-based dose response cell-based high throughput screening assay for cytotoxic compounds using the IEC-6 intestinal epithelial cell line. [Related pubchem assays: 1858 (Summary AID.), 1825 (Counterscreen.), 1907 (Confirmation screen.)]. It counts as functional.
A further assay concerns the target Beta Lactamase (Pseudomonas aeruginosa, UniProt Q932Y6). As to the kind of experiment: beta-lactamase reporter inhibitor potency, dose response, artefact control for TLR9-MyD88 binding inhibitor project, BLA reporter cells, FRET fluorescence (AID 588341).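 Further: cell based assay in CHO-K1 cells stably expressing beta-lactamase.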 It counts as cell-based.
The target in assay [8] is T2, Rac GTPase-activating protein 1 (Homo sapiens, UniProt Q9H0H5).
T2 sequence (Q9H0H5 whole entry): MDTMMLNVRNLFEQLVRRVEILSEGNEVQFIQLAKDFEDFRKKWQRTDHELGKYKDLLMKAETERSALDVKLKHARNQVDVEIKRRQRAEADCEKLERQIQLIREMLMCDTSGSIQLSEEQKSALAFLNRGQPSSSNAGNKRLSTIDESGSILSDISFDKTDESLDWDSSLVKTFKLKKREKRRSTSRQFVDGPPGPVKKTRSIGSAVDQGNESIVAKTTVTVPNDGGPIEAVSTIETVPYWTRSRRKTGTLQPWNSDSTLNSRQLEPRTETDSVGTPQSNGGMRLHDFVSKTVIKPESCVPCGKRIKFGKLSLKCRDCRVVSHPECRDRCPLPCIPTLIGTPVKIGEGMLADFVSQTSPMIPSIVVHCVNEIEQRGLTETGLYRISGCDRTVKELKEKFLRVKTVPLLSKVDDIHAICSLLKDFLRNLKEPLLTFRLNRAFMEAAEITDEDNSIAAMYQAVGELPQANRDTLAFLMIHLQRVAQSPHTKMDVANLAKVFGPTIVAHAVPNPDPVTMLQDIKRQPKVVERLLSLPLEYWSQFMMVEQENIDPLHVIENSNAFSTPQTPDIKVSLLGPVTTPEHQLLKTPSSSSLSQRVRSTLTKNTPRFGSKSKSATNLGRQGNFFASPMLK
As to the kind of experiment: MgcRacGAP GTPase-activating activity inhibitors, confirmation, biochemical, ADP Hunter fluorescence, primary and confirmatory (AID 624330). Format: functional.

Assay [9] is described as follows: Shn3 3'UTR reporter inhibitors, dose response, cell-based, Clone20 osteoblasts, firefly luciferase, cherry-picked (AID 624132).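 Further: firefly luciferase luminescence from reporter carrying the Shn3 3'UTR in osteoblasts.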 Format: functional.
Assay [10] concerns the target T3, Sentrin-specific protease 8 (Homo sapiens, UniProt Q96LD8).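 Further: luminescence read-out of SENP8 inhibition, dose-response confirmation following an ultra-high-throughput screen.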
T3 sequence (Q96LD8 whole entry): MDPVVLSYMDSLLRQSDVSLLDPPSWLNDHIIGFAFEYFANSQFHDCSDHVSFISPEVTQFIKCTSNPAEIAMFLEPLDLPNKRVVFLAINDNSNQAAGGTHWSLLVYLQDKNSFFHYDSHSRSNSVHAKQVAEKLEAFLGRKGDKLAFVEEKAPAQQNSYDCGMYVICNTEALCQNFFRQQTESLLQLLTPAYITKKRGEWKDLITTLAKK
Format: functional.

In assay [11] the target is T4, Sentrin-specific protease 6 (Homo sapiens, UniProt Q9GZR1).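 Further: Luminescence-based dose-response confirmatory assay of SENP6 inhibition, following up an ultra-high-throughput screen.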
T4 sequence (Q9GZR1 whole entry): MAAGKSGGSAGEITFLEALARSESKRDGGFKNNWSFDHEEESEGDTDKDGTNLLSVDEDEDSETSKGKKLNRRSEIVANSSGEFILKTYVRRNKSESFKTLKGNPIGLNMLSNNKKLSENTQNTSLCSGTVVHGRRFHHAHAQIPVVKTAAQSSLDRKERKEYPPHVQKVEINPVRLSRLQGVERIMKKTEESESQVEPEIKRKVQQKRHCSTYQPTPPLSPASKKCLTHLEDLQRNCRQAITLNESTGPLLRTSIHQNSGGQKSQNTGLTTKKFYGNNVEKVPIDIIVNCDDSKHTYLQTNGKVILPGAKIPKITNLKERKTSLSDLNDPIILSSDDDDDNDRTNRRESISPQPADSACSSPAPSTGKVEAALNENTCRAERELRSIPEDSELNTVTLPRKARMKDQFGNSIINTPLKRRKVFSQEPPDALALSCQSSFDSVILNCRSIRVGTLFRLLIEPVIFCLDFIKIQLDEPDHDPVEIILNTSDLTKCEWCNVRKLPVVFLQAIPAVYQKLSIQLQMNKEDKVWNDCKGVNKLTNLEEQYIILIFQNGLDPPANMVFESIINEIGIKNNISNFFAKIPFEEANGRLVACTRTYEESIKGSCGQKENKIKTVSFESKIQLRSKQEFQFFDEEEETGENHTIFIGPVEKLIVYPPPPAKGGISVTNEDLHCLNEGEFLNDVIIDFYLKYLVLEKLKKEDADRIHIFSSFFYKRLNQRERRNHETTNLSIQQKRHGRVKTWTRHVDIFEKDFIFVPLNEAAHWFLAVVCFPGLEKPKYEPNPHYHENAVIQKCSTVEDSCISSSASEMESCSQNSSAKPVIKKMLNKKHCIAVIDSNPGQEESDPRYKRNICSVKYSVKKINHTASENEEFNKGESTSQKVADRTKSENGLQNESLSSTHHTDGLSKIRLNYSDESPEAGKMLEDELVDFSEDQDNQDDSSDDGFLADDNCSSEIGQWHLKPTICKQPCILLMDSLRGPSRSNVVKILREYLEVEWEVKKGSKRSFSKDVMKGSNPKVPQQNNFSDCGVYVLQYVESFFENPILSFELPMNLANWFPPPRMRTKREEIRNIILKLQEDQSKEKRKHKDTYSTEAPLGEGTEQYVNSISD
It counts as functional.

In a further assay the target is Genome polyprotein (dengue virus type 2, UniProt P29990). The experiment in a line: Dengue-2 NS5 methyltransferase inhibitors, primary screen, biochemical, confirmation dose response (AID 588689). Format: functional.
Genome polyprotein, sequence (P29990 2492-3391 limits assumed): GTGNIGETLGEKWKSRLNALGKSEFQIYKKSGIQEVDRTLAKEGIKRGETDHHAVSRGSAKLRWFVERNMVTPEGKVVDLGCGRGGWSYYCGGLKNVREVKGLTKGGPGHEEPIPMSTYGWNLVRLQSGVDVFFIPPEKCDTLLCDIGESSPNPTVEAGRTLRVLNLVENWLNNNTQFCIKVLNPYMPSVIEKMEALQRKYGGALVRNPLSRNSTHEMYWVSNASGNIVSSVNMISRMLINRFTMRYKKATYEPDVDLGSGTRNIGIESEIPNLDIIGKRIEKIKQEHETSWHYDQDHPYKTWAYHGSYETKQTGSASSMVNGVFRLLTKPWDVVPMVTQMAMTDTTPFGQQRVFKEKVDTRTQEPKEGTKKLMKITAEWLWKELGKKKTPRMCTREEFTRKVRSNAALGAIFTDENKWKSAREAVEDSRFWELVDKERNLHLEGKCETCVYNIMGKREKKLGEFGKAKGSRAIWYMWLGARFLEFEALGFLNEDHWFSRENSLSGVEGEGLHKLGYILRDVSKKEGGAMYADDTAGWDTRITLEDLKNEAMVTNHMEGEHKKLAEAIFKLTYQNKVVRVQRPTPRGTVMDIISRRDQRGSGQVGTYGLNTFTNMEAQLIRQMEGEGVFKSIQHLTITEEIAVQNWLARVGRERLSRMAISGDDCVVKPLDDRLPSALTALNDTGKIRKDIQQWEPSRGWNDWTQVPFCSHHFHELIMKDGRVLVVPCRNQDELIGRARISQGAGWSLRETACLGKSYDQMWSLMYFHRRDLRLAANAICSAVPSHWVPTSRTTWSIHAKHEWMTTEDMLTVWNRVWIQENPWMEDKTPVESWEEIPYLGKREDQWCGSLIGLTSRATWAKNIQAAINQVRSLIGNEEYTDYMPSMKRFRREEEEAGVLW
Assay [12] has as its target Peroxisome proliferator-activated receptor gamma/Nuclear receptor coactivator 2 (Homo sapiens, UniProt P37231). It counts as functional.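 Further: agonist potency for raising coactivator recruitment to the receptor.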
A short description of assay [13]: HEp-2 cell cytotoxicity, dose response, cytotoxicity control for RSV inhibitor project, HTS (AID 2410). Conditions: human respiratory syncytial virus. Format: functional.

Peroxisome proliferator-activated receptor gamma/Nuclear receptor coactivator 2, sequence (P37231 whole entry): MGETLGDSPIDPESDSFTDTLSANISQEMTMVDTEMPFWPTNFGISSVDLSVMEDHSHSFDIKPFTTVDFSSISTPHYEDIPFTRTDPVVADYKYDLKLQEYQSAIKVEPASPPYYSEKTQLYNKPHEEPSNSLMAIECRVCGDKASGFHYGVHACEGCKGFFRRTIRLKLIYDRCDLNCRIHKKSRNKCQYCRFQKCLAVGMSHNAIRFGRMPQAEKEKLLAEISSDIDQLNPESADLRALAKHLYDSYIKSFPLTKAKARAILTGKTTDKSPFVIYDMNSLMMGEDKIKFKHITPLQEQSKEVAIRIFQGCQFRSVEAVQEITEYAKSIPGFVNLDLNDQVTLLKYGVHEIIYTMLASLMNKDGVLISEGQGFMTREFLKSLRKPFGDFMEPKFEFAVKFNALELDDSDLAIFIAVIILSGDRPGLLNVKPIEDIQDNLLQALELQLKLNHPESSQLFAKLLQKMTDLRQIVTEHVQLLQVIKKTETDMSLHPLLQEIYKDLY
Peroxisome proliferator-activated receptor gamma/Nuclear receptor coactivator 2, sequence (Q15596 whole entry, further chain): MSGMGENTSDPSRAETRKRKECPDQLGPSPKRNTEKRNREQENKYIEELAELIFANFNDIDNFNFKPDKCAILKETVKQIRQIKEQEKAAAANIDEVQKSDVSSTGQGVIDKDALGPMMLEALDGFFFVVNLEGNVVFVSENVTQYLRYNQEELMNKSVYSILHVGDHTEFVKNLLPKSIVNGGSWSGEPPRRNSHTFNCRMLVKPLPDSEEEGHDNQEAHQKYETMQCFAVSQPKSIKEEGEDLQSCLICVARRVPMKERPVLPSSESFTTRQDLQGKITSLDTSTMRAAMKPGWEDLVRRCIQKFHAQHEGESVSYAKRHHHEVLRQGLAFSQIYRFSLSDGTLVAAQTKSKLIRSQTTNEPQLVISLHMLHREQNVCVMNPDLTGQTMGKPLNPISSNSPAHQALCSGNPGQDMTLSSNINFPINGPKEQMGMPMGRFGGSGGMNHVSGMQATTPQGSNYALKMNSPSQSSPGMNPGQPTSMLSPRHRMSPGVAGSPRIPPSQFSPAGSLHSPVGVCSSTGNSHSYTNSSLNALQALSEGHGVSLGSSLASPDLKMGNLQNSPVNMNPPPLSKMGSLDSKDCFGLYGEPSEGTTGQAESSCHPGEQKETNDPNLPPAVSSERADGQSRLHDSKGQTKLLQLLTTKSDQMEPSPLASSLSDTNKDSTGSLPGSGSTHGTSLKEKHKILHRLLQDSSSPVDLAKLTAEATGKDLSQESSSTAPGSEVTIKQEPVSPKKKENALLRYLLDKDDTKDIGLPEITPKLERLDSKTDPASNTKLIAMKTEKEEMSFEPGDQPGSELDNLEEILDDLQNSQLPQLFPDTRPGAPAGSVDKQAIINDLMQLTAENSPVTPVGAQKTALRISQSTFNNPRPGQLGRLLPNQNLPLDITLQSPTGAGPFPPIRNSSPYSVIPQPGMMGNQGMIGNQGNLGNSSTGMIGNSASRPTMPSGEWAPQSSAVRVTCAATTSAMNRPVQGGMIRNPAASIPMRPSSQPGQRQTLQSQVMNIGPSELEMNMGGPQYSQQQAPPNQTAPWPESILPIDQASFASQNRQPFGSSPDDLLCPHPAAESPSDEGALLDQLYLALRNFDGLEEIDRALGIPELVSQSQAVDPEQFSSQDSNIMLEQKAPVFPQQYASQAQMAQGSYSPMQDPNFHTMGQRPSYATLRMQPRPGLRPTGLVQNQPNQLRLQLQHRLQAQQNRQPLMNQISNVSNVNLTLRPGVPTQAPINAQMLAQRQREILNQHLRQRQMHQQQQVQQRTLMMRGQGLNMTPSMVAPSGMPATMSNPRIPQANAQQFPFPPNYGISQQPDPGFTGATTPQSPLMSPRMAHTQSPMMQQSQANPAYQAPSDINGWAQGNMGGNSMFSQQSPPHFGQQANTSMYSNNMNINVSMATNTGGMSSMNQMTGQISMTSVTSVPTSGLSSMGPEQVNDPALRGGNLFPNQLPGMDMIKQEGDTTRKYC
Beta Lactamase, sequence (Q932Y6 whole entry): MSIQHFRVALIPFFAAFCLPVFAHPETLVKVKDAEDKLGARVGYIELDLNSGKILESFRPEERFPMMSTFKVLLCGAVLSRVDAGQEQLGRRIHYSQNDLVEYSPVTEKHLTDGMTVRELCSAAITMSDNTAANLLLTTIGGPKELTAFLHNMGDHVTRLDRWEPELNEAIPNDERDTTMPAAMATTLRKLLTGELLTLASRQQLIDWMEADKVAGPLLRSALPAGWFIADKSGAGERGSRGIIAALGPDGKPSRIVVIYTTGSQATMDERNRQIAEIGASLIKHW

Turning to `CCCCCCCCCCCCCCCCn1cc[n+](C)c1`, the AC50 in assay [1] was 23.5 µM (active); in assay [3] it was 7.76 µM (active); in assay [5], 5.26 µM (active). For the same molecule, the IC50 in assay [2] is > 20 µM (inactive). For the same molecule, the results for the EC50 in assay [4] (NIH3T3) and in [4] (nih3t3) were 8.99 µM (active) and 8.81 µM (active), respectively.
With `O=C(Nc1ccccc1Cl)/C(Cl)=C(\Cl)[S+]([O-])c1ccccc1` (stereo unspecified), the CC50 in assay [6] was 28.9 µM (active). The results for the IC50 (in assay [7]; on Beta Lactamase; in assay [8]) were 2.52 µM (active), > 5.53 µM (active) and 22.8 µM (active), respectively. Also, the half-maximal activity concentration (AC50) in assay [9] is 0.438 µM (active).
For `O=C(NC1(O)C(=O)c2ccccc2C1=O)c1ccccc1`, the IC50 in [10] was 4.39 µM (active); in assay [11] it was 2.39 µM (active).
In the case of `Cc1ccc(C)c(S(=O)(=O)/N=C2\C=C(NS(=O)(=O)c3ccccc3)C(=O)c3ccccc32)c1`, on Genome polyprotein, the IC50 was 97.8 µM (active).
For `Cc1cc(C)nc(/N=c2/ssnc2Cl)c1`, in assay [12], the EC50 is listed as > 79.4 µM (not active). Further, the CC50 in assay [13] is 17.4 µM (active).
